Laboratory results as given in patent US20080268076A1, “Composition for Inhibiting Acyl-Coa:Cholesterol Acyltransferase” (priority 2005, published 2008).

Biological target: acyl-CoA:cholesterol acyltransferase (ACAT)
Assay: Assay for ACAT activity with [1-14C]oleoyl-CoA and rat liver microsomal enzyme
Settings: for IC50: read-out: IC50 against ACAT, rat liver microsomal enzyme
Experimental: The livers were removed from Male Sprague-Dawley rats (250-300 g), washed with microsome buffer A (0.25 M sucrose, 1 mM EDTA, 0.01 M Tris-HCl, pH 7.4), finely fractioned with scissors, and homogenized using a Teflon-glass homogenizer.
A reaction solution was prepared by mixing 10.0 μl of the sample, 4.0 μl of a rat liver microsomal enzyme of rat, 20.0 μl of an assay buffer [0.5 M KH2PO4, 10 mM DTT, pH 7.4], 15.0 μl of 40 mg/me BSA (essentially fatty acid free), 2.0 μl of 20 mg/me cholesterol, and 41.0 μl of distilled water, and subjected to pre-reaction at 37° C. for 20 min. To this enzymatic solution was added 8.0 μl of [1-^14C]oleoyl-CoA (0.05 μCi, final conc. 10 μM), and enzyme reaction was carried out at 37° C. for 25 min and terminated with 1 ml of isopropanol-heptane (4:1 v/v). Following the addition of 0.6 ml of heptane and 0.4 ml of five fold-diluted assay buffer, centrifugation was performed to separate the organic solvent. 100 μl of the supernatant was mixed well with 3 ml of Lipoluma scintillation cocktail and radioactivity was measured using a liquid scintillation counter.
Activity of inhibiting ACAT was quantified as radioactivity detected in the product of the reaction between the radio-labeled substrate and the enzyme in the presence of the assay samples, and percentage activity inhibition was calculated according to Equation 1 as follows.
CPM (T): CPM detected upon co-existence of sample and enzyme
CPM (C1): CPM upon existence of enzyme alone in the absence of sample
CPM (C2): CPM detected upon existence of sample alone in the absence of enzyme
CPM (B): CPM detected in the absence of both enzyme and sample.

IC50	inhibitory activity relative to obovatol (ACAT inhibition, compared with the positive control obovatol)	Molecule
24.5 µM		CC(C)CNC(=O)/C=C/C=C/CC/C=C/c1ccc2c(c1)OCO2 [Chemical Formula 1, retrofractamide A]
3.7 µM	12 times	CC(C)CNC(=O)/C=C/C=C/CCCC/C=C/c1ccc2c(c1)OCO2 [Chemical Formula 2, pipercide]
87.5 µM		O=C(/C=C/CCCCCCc1ccc2c(c1)OCO2)N1CCCCC1 [Chemical Formula 3, piperrolein B]
11.5 µM		CC(C)CNC(=O)/C=C/CCCCCC/C=C/c1ccc2c(c1)OCO2 [Chemical Formula 4, piperchabamide D]
40.4 µM		CCCCC/C=C/C=C/C(=O)NCC(C)C [Chemical Formula 5, pellitorin]

Molecule	IC50	inhibitory activity relative to obovatol (ACAT inhibition, compared with the positive control obovatol)
obovatol [reference compound]	44 µM	
